Consider 34 compounds from US20230148299A1, “FEM1B PROTEIN BINDING AGENTS AND USES THEREOF” (The Regents Of The University Of California, priority 2020, published 2023).

One assay concerns the target T1, BRD4 (Homo sapiens, UniProt O60885).
T1 construct: endogenous in cells; host or cells: 231MFP breast cancer cells
As to the kind of experiment: BRD4 degradation by Western blot in 231MFP breast cancer cells. The assay is classed as cell-based. As to conditions: 231MFP cells, NJH-01-106 12 hours, MZ1 4 hours. The method, then: 231MFP breast cancer cells were treated for 12 hours with NJH-01-106, and 4 hours with known BRD4 PROTAC MZ1. BRD4 and loading control GAPDH levels were assessed by Western blotting following treatment with NJH-01-106 or MZ1, as described above, and are shown in FIG. 4.
Western Blot Protocol. Proteins were resolved by SDS-PAGE (4-20% TGX gels, Bio-Rad Laboratories, Inc.) and transferred to nitrocellulose membranes using the Trans-Blot Turbo transfer system (Bio-Rad). Membranes were blocked with 5% BSA in Tris-buffered saline containing Tween 20 (TBST) solution for 1 h at room temperature, washed in TBST and probed with primary antibody diluted in diluent, as recommended by the various manufacturers, overnight at 4° C. Primary antibodies used were: BRD4 (Cell Signaling Technologies #13440), GAPDH (ProteinTech 60004-1-Ig), FEM1B (ProteinTech 19544-1-AP). Following washes with TBST, the blots were incubated in the dark with secondary antibodies purchased from Li-Cor Biosciences and used at 1:10,000 dilution in 5% BSA in TBST at room temperature for 1 h. Blots were visualized using an Odyssey Li-Cor scanner after additional washes. Protein intensity was quantified using ImageJ software.
(A western blot detects proteins with antibodies after separation by electrophoresis.)

For a further assay, the target named is FEM1B-FNIP1 (Homo sapiens, UniProt Q9UK73). As to the kind of experiment: Fluorescence polarization between FEM1B and FNIP1 (covalent ligand screen). The assay is classed as binding. As to conditions: DMSO = 100, FP between FEM1B and FNIP1; for remaining activity at 5 µM: compound at 5 μM, read-out: Normalized FP 5 μM; for activity at 50 µM: compound at 50 μM, read-out: Normalized FP 50 μM. From the text:
FIG. 11. Fluorescence polarization screen to identify functional FEM1B-FNIP1-targeting covalent ligands.
(§1) FEM1B binds a conserved central degron in FNIP1. Deletion analysis of FNIP1 identifies a stretch of 20 amino acids that is required for its binding to FEM1B and its proteasomal degradation. FNIP1 variants were expressed in cells and tested for interaction with ^FLAGFEM1B by co-immunoprecipitation, and for degradation by measuring their abundance in the presence or absence of FEM1B. The FNIP1 degron is required for FEM1B binding and proteasomal degradation. […] FEM1B variants were immunoprecipitated and bound FNIP1 and FLCN were detected by Western blotting. The FNIP1 degron is sufficient to mediate FEM1B-dependent degradation. The FNIP1 degron was fused to GFP (GFP^degron) and expressed from the same plasmid as an IRES controlled mCherry. mCherry provides normalization for GFP fluorescence in each cell. […] Levels of GFP^degron and mCherry were determined by FACS, and their ratio is depicted for presence or absence of FEM1B variants. Deletion of FEM1B prevents FNIP1-degron dependent degradation. The FEM1B locus was deleted in 293T cells using CRISPR/Cas9. Cells were transfected with the GFP^degron/mCherry reporter, and analyzed for GFP and mCherry fluorescence by FACS. FEM1B directly binds the FNIP1 degron in vitro. A TAMRA-labeled FNIP1 degron peptide was incubated with purified FEMIB or the control CRL1 adaptor FBXL17, and binding was measured by fluorescence polarization of the peptide. The FNIP1 degron is sufficient to mediate CUL2^FEM1B-dependent ubiquitylation. The TAMRA-labeled FNIP1 degron was incubated with recombinant CUL2^FEM1B (unmodified or NEDD8-modified), E1, ubiquitin, ATP and the E2 enzymes UBE2D3 and/or UBE2R1. Ubiquitylation was monitored by gel electrophoresis and fluorescence detection.
A general note: Polarisation of emitted light reports the rotation of a fluorescent probe.

Assay [1] deals with GFP-Fnip1 degron reporter. As to the kind of experiment: GFP-Fnip1 degron reporter (GFP/mCherry) by flow cytometry. Type of assay: cell-based. As to conditions: GFP/mCherry ratio by FACS.
Protocol: HEK293T cells were transfected 24 hours before flow cytometery with the GFP-Fnip1 degron reporter+/−Fem1b.
FNIP1 variants were expressed in cells and tested for interaction with ^FLAGFEM1B by co-immunoprecipitation, and for degradation by measuring their abundance in the presence or absence of FEM1B. […] FEM1B variants were immunoprecipitated and bound FNIP1 and FLCN were detected by Western blotting. […] The FNIP1 degron was fused to GFP (GFP^degron) and expressed from the same plasmid as an IRES controlled mCherry. mCherry provides normalization for GFP fluorescence in each cell. […] Levels of GFP^degron and mCherry were determined by FACS, and their ratio is depicted for presence or absence of FEM1B variants. […] Cells were transfected with the GFP^degron/mCherry reporter, and analyzed for GFP and mCherry fluorescence by FACS. […] A TAMRA-labeled FNIP1 degron peptide was incubated with purified FEMIB or the control CRL1 adaptor FBXL17, and binding was measured by fluorescence polarization of the peptide. […] The TAMRA-labeled FNIP1 degron was incubated with recombinant CUL2^FEM1B (unmodified or NEDD8-modified), E1, ubiquitin, ATP and the E2 enzymes UBE2D3 and/or UBE2R1. Ubiquitylation was monitored by gel electrophoresis and fluorescence detection.
The target in a further assay is FEM1B (Homo sapiens, UniProt Q9UK73). As to the kind of experiment: Fluorescence polarization binding of TAMRA-labeled FNIP1 degron peptide to recombinant FEM1B. The note with it: degron peptide treated with agent.
Chain of FEM1B (Q9UK73 whole entry): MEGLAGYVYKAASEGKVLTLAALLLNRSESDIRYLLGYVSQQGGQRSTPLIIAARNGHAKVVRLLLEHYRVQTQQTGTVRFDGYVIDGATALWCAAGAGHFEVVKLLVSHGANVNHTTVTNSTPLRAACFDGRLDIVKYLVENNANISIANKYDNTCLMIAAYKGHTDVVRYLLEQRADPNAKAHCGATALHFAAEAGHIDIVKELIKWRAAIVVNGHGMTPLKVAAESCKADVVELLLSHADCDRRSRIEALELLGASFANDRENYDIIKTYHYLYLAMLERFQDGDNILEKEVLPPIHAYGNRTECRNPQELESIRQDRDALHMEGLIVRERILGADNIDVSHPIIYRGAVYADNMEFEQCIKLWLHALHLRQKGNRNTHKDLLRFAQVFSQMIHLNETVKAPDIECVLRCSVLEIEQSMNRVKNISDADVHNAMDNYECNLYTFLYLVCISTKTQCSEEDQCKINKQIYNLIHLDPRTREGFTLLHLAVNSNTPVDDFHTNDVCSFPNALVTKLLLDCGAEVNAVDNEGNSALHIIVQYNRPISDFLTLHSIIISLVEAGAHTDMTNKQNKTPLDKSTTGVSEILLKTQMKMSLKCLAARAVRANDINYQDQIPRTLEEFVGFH
From the text: as §1, with “The FEM1B locus was deleted in 293T cells using CRISPR/Cas9.” left out, “FEM1B directly binds the FNIP1 degron in vitro.” left out, “The FNIP1 degron is sufficient to mediate CUL2^FEM1B-dependent ubiquitylation. The TAMRA-labeled FNIP1 degron was incubated with recombinant CUL2^FEM1B (unmodified or NEDD8-modified), E1, ubiquitin, ATP and the E2 enzymes UBE2D3 and/or UBE2R1.” left out, “detection. […]” for “detection.”

Chain of FEM1B-FNIP1 (Q9UK73 whole entry): as above

As for `Cc1sc2c(c1C)C(c1ccc(Cl)cc1)=N[C@@H](CC(=O)NCCCCCNC(=O)CN1CCOc3cc(N(CCC#N)C(=O)CCl)ccc31)c1nnc(C)n1-2` [EN106 linked to BRD4 inhibitor JQ1, (S)-2-chloro-N-(4-(2-((5-(2-(4-(4-chlorophenyl)-2,3,9-trimethyl-6H-thieno[3,2-f][1,2,4]triazolo[4,3-a][1,4]diazepin-6-yl)acetamido)pentyl)amino)-2-oxoethyl)-3,4-dihydro-2H-benzo[b][1,4]oxazin-7-yl)-N-(2-cyanoethyl)acetamide], the “degradation of BRD4” value at BRD4 is listed as “degradation of BRD4”.

For `C=CCOc1ccccc1CN(C(=O)CCl)c1ccc2c(c1)OCCO2` [EN-NJH-001], at FEM1B-FNIP1, the remaining activity at 5 µM came out at 97.8% and the activity at 50 µM is 19.1%. Taken in the same sequence, the figures for `CCOc1ccc(N(CCC#N)C(=O)CCl)cc1` [EN-NJH-002] were 40.1% and 8.82%. Take `N#CCCN(C(=O)CCl)c1cccc(Cl)c1` [EN-NJH-003]: on FEM1B-FNIP1, the remaining activity at 5 µM turned out to be 54.1% and the activity at 50 µM came out at 2.7%. For `CCN(C(=O)CCl)c1ccc2c(c1)OCO2` [EN-NJH-004] the same measures were 76.1% and 11.8%.

On to `CC(Cl)C(=O)Nc1ccc2c(c1)OCCO2` (stereo not drawn) [EN-NJH-005], for which, at FEM1B-FNIP1, the remaining activity at 5 µM was 98.1% and the activity at 50 µM came out at 101%. Taken in the same sequence, the figures for `C=CCOc1ccccc1CN(C(=O)CCl)c1ccc2c(c1)OCO2` [EN-NJH-006] were 89.7% and 21.5%. Taken in the same sequence, the figures for `O=C(CCl)Nc1cc2c(cc1Br)OCCO2` [EN-NJH-007] were 87.7% and 11.7%. Consider `CC(Cl)C(=O)N(CCC#N)c1ccccc1` (stereo not drawn) [EN-NJH-008], for which, on FEM1B-FNIP1, the remaining activity at 5 µM was 97.9% and the activity at 50 µM stood at 113%.

`O=C(CCl)N(Cc1cccs1)c1ccc2c(c1)OCCO2` [EN-NJH-009]: on FEM1B-FNIP1, the remaining activity at 5 µM was determined as 74.8% and the activity at 50 µM is 6%. Take `N#CCCN(C(=O)CCl)c1ccccc1F` [EN-NJH-010]: on FEM1B-FNIP1, the remaining activity at 5 µM turned out to be 46.8% and the activity at 50 µM was 14.6%.

As for `Cc1ccc(N(CCC#N)C(=O)CCl)cc1` [EN-NJH-011], on FEM1B-FNIP1, the remaining activity at 5 µM stood at 45.8% and the activity at 50 µM turned out to be 4.29%.

For the compound `COc1ccccc1N(CCC#N)C(=O)CCl` [EN-NJH-012], at FEM1B-FNIP1, the remaining activity at 5 µM stood at 90.4% and the activity at 50 µM worked out at 24.8%. Taken in the same sequence, the figures for `O=C(CCl)Nc1ccc2c(c1)OCCO2` [EN-NJH-013] were 93.1% and 21.3%. Taken in the same sequence, the figures for `O=C(CCl)Nc1cc2c(cc1Cl)OCCO2` [EN-NJH-014] were 94.8% and 21.8%. Taken in the same sequence, the figures for `N#CCCN(C(=O)CCl)c1ccc(F)cc1` [EN-NJH-015] were 36.3% and 16.3%. For the compound `Cc1ccc(N(CCC#N)C(=O)CCl)cc1C` [EN-NJH-016], on FEM1B-FNIP1, the remaining activity at 5 µM amounted to 43.7% and the activity at 50 µM came to 11.3%. Taken in the same sequence, the figures for `Cc1cc(C)cc(N(CCC#N)C(=O)CCl)c1` [EN-NJH-017] were 63.7% and 17.4%. Taken in the same sequence, the figures for `Cc1cc(N(CCC#N)C(=O)CCl)ccc1Cl` [EN-NJH-018] were 16.4% and 12%. Taken in the same sequence, the figures for `N#CCCN(C(=O)CCl)c1ccccc1` [EN-NJH-019] were 44.1% and 19.4%.

In the case of `COc1cc2c(cc1OC)N(C(=O)CCl)CC2` [EN-NJH-020], on FEM1B-FNIP1, the remaining activity at 5 µM came to 15.6% and the activity at 50 µM stood at 19.1%.

With `O=C(CCl)N(CC=Cc1ccccc1)c1ccc2c(c1)OCCO2` [EN-NJH-021], at FEM1B-FNIP1, the remaining activity at 5 µM came to 86.4% and the activity at 50 µM came out at 26.8%. As to `C#CCCCCNC(=O)CI` [IAyne], the “stability of GFP^degron reporter” value in assay [1] was “stabilizes GFP^degron in cells”.

For `Cc1ncsc1-c1ccc(CNC(=O)[C@@H]2C[C@@H](O)CN2C(=O)[C@@H](NC(=O)COCCOCCOCCNC(=O)C[C@@H]2N=C(c3ccc(Cl)cc3)c3c(sc(C)c3C)-n3c(C)nnc32)C(C)(C)C)cc1` [MZ1, reference compound], on BRD4, the “degradation of BRD4” value is “degradation of BRD4”. Take `CC(=O)N[C@@H](CS)C(=O)O` [N-acetylcysteine]: the “stability of GFP^degron reporter” value in assay [1] was “does not affect the stability of the GFP^degron reporter”.

In the case of `CCN1C(=O)C=CC1=O` [N-ethylmaleimide], on FEM1B, the “recognition of FNIP1 degron by FEM1B after treatment of degron with Cys-modifying agent” value was “strongly inhibited its recognition by FEM1B”. Regarding `CC(C)(C)OC(=O)N1CCOc2ccc(N(CCC#N)C(=O)CCl)cc21` [NJH-01-073], on FEM1B-FNIP1, the remaining activity at 5 µM was determined as 32.8% and the activity at 50 µM was 9.87%. Taken in the same sequence, the figures for `CC(=O)N1CCOc2ccc(N(CCC#N)C(=O)CCl)cc21` [NJH-01-085] were 31.3% and 14.2%. For the compound `CC(C)(C)OC(=O)CN1CCOc2cc(N(CCC#N)C(=O)CCl)ccc21` [NJH-01-093], at FEM1B-FNIP1, the remaining activity at 5 µM came to 26.5% and the activity at 50 µM is 15.2%.

`C=CC(=O)N(CCC#N)c1ccc2c(c1)OCCO2` [NJH-01-098]: at FEM1B-FNIP1, the remaining activity at 5 µM was 105% and the activity at 50 µM was 115%. For `COc1cccc(CN(C(=O)CCl)c2ccc3c(c2)OCCO3)c1` [SB-02-092] the same measures were 54.9% and 12.6%. In the case of `CC(C)C[C@H](NC(=O)[C@H](CCc1ccccc1)NC(=O)CN1CCOCC1)C(=O)N[C@@H](Cc1ccccc1)C(=O)N[C@@H](CC(C)C)C(=O)[C@@]1(C)CO1` [carfilzomib], the “stability of GFP^degron reporter” value in assay [1] was “stabilizes the GFP^degron reporter”. Consider `NC(=O)CI` [iodoacetamide], for which, at FEM1B, the “recognition of FNIP1 degron by FEM1B after treatment of degron with Cys-modifying agent” value is listed as “strongly inhibited its recognition by FEM1B”.

For the compound antimycin A, the “stability of GFP^degron reporter” value in assay [1] is given as “stabilized GFP^degron”.
